Key:
Dopaminergic D4.4 = Dopaminergic D4.4 (Homo sapiens, UniProt P21917); assay: CNS receptor binding assay, D4.4; conditions: MAP4343 10 µM; [^3H] spiperone; Human recombinant (CHO cells); read-out: % Inhibition of control specific binding
Experimental: (§1) MAP4343 has been screened for in vitro affinity to 80 different CNS neurotransmitters receptors using various validated binding assays.
(§2) Table 4. In vitro affinity of MAP4343 (10 µM) for CNS neurotransmitter receptors associated with side effects and/or abuse liability. Data are the average of two individual assays for each receptor and are expressed as % inhibition of the control specific binding of the reference compound. Results showing an inhibition higher than 50% are considered to represent significant effects of the test compound.

Noradrenergic α1 = assay: CNS receptor binding assay, α1; conditions: MAP4343 10 µM; [^3H] prazosin; rat cerebral cortex
Experimental: as §1, §2

NMDA PCP site = assay: CNS receptor binding assay, NMDA PCP site; conditions: MAP4343 10 µM; [^3H] TCP; rat cerebral cortex
Experimental: as §1, §2

ERβ = target: T1, ERβ (Homo sapiens, UniProt Q92731); assay: Radioligand binding assay, steroid hormone receptor ERβ; conditions: MAP4343 10 µM; 0.5 nM [^3H] Estradiol; Human recombinant Sf9 cells; second ER row
T1 construct: host or cells: Sf9 cells
T1 sequence (Q92731 whole entry): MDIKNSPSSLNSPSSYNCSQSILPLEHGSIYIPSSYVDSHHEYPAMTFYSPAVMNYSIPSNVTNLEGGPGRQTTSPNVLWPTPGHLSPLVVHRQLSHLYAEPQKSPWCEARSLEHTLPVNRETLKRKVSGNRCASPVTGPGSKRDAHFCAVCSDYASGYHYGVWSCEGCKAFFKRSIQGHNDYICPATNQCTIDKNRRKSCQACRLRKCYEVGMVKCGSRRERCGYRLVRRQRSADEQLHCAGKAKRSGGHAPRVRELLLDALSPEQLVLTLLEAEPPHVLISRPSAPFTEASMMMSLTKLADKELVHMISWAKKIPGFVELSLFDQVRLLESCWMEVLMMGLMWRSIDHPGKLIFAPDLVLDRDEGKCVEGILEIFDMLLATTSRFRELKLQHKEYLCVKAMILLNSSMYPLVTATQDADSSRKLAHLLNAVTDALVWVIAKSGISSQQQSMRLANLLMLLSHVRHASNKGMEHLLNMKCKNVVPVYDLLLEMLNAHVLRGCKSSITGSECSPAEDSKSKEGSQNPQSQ
Experimental: Binding affinity of 3β-methoxy-PREG (MAP4343) for receptors of steroid hormones was evaluated using radioligand binding assays.
Table 3. Affinity of MAP4343 (10 µM) for steroid hormones receptors measured by radioligand binding assays. […] None of the results met significance criteria at concentrations used.

Dopaminergic D5 = Dopaminergic D5 (Homo sapiens, UniProt P21918); assay: CNS receptor binding assay, D5; conditions: MAP4343 10 µM; [^3H] SCH 23390; Human recombinant (GH4 cells); read-out: % Inhibition of control specific binding
Chain of Dopaminergic D5 (P21918 whole entry): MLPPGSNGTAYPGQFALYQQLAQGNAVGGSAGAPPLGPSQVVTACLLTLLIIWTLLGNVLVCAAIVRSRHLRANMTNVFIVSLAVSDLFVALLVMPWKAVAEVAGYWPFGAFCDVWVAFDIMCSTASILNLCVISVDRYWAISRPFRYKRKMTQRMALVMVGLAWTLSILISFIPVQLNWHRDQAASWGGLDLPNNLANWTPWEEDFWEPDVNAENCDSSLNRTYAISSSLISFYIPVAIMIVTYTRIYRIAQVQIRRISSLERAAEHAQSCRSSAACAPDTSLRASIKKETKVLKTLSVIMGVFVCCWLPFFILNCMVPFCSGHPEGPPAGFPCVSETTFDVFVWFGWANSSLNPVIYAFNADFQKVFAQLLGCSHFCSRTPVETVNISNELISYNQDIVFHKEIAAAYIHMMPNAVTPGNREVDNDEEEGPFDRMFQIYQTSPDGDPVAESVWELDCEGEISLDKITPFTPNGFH
Experimental: as §1, §2

[1] = target: T2, Muscarinic (Cholinergic) M3 (Homo sapiens, UniProt P20309); assay: CNS receptor binding assay, M3; conditions: MAP4343 10 µM; [^3H] 4-DAMP; Human recombinant (CHO cells); read-out: % Inhibition of control specific binding
T2 construct: expressed in transfected cells; host or cells: CHO cells
T2 sequence (P20309 whole entry): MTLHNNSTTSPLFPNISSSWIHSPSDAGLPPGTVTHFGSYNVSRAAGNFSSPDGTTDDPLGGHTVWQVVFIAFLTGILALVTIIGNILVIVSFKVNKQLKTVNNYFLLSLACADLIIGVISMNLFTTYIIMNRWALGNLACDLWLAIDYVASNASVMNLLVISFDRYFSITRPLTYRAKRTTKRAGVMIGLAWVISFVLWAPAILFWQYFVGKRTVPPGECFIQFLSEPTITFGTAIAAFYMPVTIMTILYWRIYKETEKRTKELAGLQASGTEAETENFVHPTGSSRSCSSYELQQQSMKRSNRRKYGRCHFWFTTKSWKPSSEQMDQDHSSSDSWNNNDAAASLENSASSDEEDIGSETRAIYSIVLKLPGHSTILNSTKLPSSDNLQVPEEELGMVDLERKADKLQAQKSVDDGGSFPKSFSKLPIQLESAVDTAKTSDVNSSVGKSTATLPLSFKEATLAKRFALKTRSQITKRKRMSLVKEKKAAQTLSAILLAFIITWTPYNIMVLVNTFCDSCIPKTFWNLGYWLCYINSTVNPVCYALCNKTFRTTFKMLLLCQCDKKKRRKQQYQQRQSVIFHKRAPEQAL
Experimental: as §1, §2

Chain of Dopaminergic D4.4 (P21917 whole entry): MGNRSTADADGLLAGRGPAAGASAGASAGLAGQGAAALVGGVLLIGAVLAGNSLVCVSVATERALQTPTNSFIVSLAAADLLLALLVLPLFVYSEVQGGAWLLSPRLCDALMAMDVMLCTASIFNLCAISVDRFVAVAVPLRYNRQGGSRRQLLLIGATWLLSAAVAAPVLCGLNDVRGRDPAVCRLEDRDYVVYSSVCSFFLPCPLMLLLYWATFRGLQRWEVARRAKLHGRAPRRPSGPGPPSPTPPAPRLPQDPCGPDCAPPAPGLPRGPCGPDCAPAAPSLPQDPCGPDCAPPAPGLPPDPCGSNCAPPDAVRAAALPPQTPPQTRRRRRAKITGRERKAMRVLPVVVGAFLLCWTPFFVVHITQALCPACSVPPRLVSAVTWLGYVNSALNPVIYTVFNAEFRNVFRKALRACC

CO[C@H]1CC[C@@]2(C)C(=CC[C@H]3[C@@H]4CC[C@H](C(C)=O)[C@@]4(C)CC[C@@H]32)C1 (stereo in doubt) [MAP4343, 3β-methoxy-pregna-5-ene-20-one]
inhibition at 10 µM (Dopaminergic D4.4): 6% | % Inhibition of control specific binding (Noradrenergic α1): 4% | % Inhibition of control specific binding (NMDA PCP site): -10% | % inhibition (ERβ): 16% | inhibition at 10 µM (ERβ): < 25% | inhibition at 10 µM (Dopaminergic D5): -7% | inhibition at 10 µM [1]: 3%
